Experimental data taken from BindingDB's records for doi:10.1021/jm9803626 (Dupont Pharmaceuticals, 1999).

Target: T1, Dimer of Gag-Pol polyprotein [489-587] (Human immunodeficiency virus 1, UniProt P04585)
T1 construct: 489-587
Test: Protease Inhibition Assay
Experimental: Inhibition of HIV protease was measured by assay of the cleavage of a fluorescent peptide substrate. The fluorescent product (2-aminobenzoyl-Ala-Thr-His-Gln-Val-Tyr) was separated from the fluorescent substrate by anion-exchange HPLC on a Mono-Q anion-exchange column (Pharmacia), and fluorescence was monitored at an excitation wavelength of 330 nm and an emission wavelength of 430 nm. Ki values for inhibitor binding were estimated at fixed concentrations of substrate and inhibitor from fractional activity measurements by use of the modified Michaelis-Menten equation.

| SMILES | Ki [nM] |
| --- | --- |
| O=C1N[C@H](CCc2ccccc2)[C@@H](O)[C@@H](Cc2ccccc2)N1Cc1ccccc1 [(4R,5S,6R)-Tetrahydro-1,6-bis-(phenylmethyl)-5-hydroxy-4-(2-phenylethyl)-2(1H)-pyrimidinone] | 66 |
| N/C(=N\O)c1cccc(CN2C(=O)N[C@H](CCc3ccccc3)[C@@H](O)[C@H]2Cc2ccccc2)c1 [(4R,5R,6R)-Tetrahydro-1-(3-(N-hydroxycarboximidamide)phenylmethyl)-6-phenylmethyl-5-hydroxy-4-(2-phenylethyl)-2(1H)-pyrimidinone] | 0.24 |
